Source: article PMC7261835, “New Brilliant Blue G Derivative as Pharmacological Tool in Retinal Surgery” (Frontiers in Pharmacology, 2020)

Assays:
[1] = Ex vivo model of vitreoretinal surgery, dye quantification in retina by HPLC; design: species or system swine; conditions: porcine eye ex vivo, 40 µl of 0.05% PBB formulation, removed after 30 s, after ILM peeling
Text: (§1) Ex vivo model of vitreoretinal surgery has been previously reported for evaluation of indocyanine green ILM staining properties ([Nakamura et al., 2003]). We carried out on swine eyes the same procedure previously reported on primates, with slight modifications. The following formulations have been tested in the ex vivo model of vitreoretinal surgery: Brilliant PeelTM (0.025% Brilliant Blue G BBG; Fluoron, Ulm, Germany); ILM-BlueTM (0.025% Brilliant Blue G; Dutch Ophthalmic Research Center (International) […], Italy); View-ILM® (0.03% methyl-Brilliant Blue […], Ponte San Nicolò-Padova, Italy); PBB® (0.05% Pure benzyl-Brilliant Blue G; Alfa-Instruments, Casoria, Italy). […] The levels of the dye molecules were quantified by means of HPLC analysis. […] The dried residue was reconstituted in 100 μl of mobile phase by vortexing for 120 s, filtered again on 0.45 μm filters, and, finally, 10-20 μl aliquots were injected into the chromatographic apparatus (each sample was analyzed in triplicate). […] BBG, Me-BBG, and PBB® were analyzed using three different isocratic ternary mobile phases consisting of (A) acetonitrile, (B) methanol, and (C) triethylamine 0.3% (v/v) in water (pH adjusted to 3.0 with trifluoroacetic acid) with different proportions (A:B:C) as follows: BBG 49:5:46 (v/v/v); Me-BBG 54:5:41 (v/v/v); PBB® 62:5:33 (v/v/v). […]

[2] = test system: proteins (fibronectin proteolytic fragment 45 kDa, E. coli beta-galactosidase, bovine serum albumin, chicken ovalbumin, equine cytochrome C); experiment: Dye protein affinity assay: SDS-PAGE staining intensity, densitometry; type: binding; conditions: SDS-page protein bands, dyes 0.025% in fixative; compared to BBG and Me-BBG; p < 0.05
Description: In order to have the same dye/protein molar ratio for dye protein affinity assay, a set of molecular weight standards was obtained by mixing 430 nmol of the following proteins: i. fibronectin proteolytic fragment 45 kDa; ii. E. coli beta-galactosidase 116.3 kDa; iii. bovine serum albumin 66.5 kDa; iv. chicken ovalbumin 42.7 kDa; v. equine cytochrome C 12.3 kDa. Polyacrylamide gel electrophoresis was carried out loading the molecular weight standard in a 9% precast gels (Biorad), as triplicates on separate lanes. Gel electrophoresis was carried out at 20V for 60–90 min in denaturing conditions. After runs, each lane was cut and soaked overnight in a different staining solution, consisting of dyes dissolved at 0.025% in gel fixative solution (40% methanol, 20% acetic acid). Thereafter, gel lanes were decolored in the fixative solution without dyes, until the background stain reached the minimum level compared to stained protein bands. Images were collected with a scanner at 300 dpi, 16M colors. Densitometric analysis was done using the software ImageJ ([Rueden et al., 2017]). LogD values (pH 7.4) were calculated in silico using ACD/Labs software (version 11.1 2008, ACD Labs). […]

[3] = Ex vivo model of vitreoretinal surgery, dye quantification in ILM by HPLC; design: species or system swine; conditions: porcine eye ex vivo, 40 µl, 30 s
Text: as §1

[4] = test system: purinergic ionotropic P2X7 receptor; design: method as in Bartlett et al., 2014; conditions: ref Bartlett et al., 2014; cited from earlier work

CCOc1ccc(N(Cc2ccccc2)c2ccc(C(=C3C=CC(=[N+](CC)Cc4cccc(S(=O)(=O)[O-])c4)C=C3C)c3ccc(N(CC)Cc4cccc(S(=O)(=O)O)c4)cc3C)cc2)cc1 [Entry 7, pure benzyl-Brilliant Blue G]
dye levels in the retina [1]: 52 ng/mg
Protein binding quantified as staining intensity (% staining, % of control BBG) [2]: higher protein affinity (% staining) compared to BBG and Me-BBG
dye content in ILM compared to Brilliant Peel formulation (BBG) [3]: higher, even though not statistical significant
fold increase of ILM dye levels compared to Me-BBG (View ILM) formulation ([3]; p < 0.05): 6.0 fold

CCOc1ccc(Nc2ccc(/C(=C3C=C/C(=[N+](/CC)Cc4cccc(S(=O)(=O)[O-])c4)C=C/3C)c3ccc(N(CC)Cc4cccc(S(=O)(=O)O)c4)cc3C)cc2)cc1 [Entry 1, Brilliant Blue G]
P2X7 receptor antagonism [4]: potent selective non-competitive antagonist
